Species on record: Rattus norvegicus
Test: Open TG-GATES - Regimen: Single
Format: toxicity, organism-based, Sprague-Dawley
Design: regimen Single, gender Male, age 6 weeks
Details: in vivo, po, 100 mg/kg, route gavage, dose level Middle; for APTT / Bas / Eos / Fbg / Hb / Ht / Lym / MCH / MCHC / MCV / Mono / Neu / PT / Plat / RBC / Ret / WBC: tissue Blood; for KIDNEY_L / KIDNEY_R / KIDNEY_TOTAL: tissue Kidney; for LIVER: tissue Liver; for ALP / ALT / AST / BUN / CRE / Ca / Cl / DBIL / GLC / IP / K / LDH / Na / PL / RALB / TBIL / TC / TG / TP / gamma-GTP: tissue Plasma

COc1cc([C@@H]2c3cc4c(cc3[C@@H](O[C@@H]3O[C@@H]5CO[C@@H](C)O[C@H]5[C@H](O)[C@H]3O)[C@H]3COC(=O)[C@H]23)OCO4)cc(OC)c1O [ETOPOSIDE]
TERMINAL_BW (3 h): 196.5 g | APTT (3 h): 17 s | Bas (3 h): 0% | Eos (3 h): 1% | Fbg (3 h): 184.4 mg/dL | Hb (3 h): 13.6 g/dL | Ht (3 h): 40.5% | Lym (3 h): 78.6% | MCH (3 h): 21.7 pg | MCHC (3 h): 33.7% | MCV (3 h): 64.4 fL | Mono (3 h): 8.2% | Neu (3 h): 12.2% | PT (3 h): 12.3 s | Plat (3 h): 118 x10_4/uL | RBC (3 h): 628.4 x10_4/ul | Ret (3 h): 9.8% | WBC (3 h): 104.2 x10_2/uL | KIDNEY_L (3 h): 0.9 g | KIDNEY_R (3 h): 0.9 g | KIDNEY_TOTAL (3 h): 1.8 g | LIVER (3 h): 9.1 g | ALP (3 h): 1074.8 IU/L | ALT (3 h): 36 IU/L | AST (3 h): 69.4 IU/L | BUN (3 h): 13.8 mg/dL | CRE (3 h): 0.5 mg/dL | Ca (3 h): 10.6 mg/dL | Cl (3 h): 103.8 meq/L | DBIL (3 h): 0.026 mg/dL | GLC (3 h): 193 mg/dL | IP (3 h): 9.6 mg/dL | K (3 h): 4.3 meq/L | LDH (3 h): 111 IU/L | Na (3 h): 141.6 meq/L | PL (3 h): 137.2 mg/dL | RALB (3 h): 3.4 g/dL | TBIL (3 h): 0.3 mg/dL | TC (3 h): 78.6 mg/dL | TG (3 h): 45.4 mg/dL | TP (3 h): 5.2 g/dL | gamma-GTP (3 h): 1.4 IU/L | TERMINAL_BW (6 h): 198.5 g | APTT (6 h): 17.4 s | Bas (6 h): 0% | Eos (6 h): 1% | Fbg (6 h): 198 mg/dL | Hb (6 h): 13.6 g/dL | Ht (6 h): 40.5% | Lym (6 h): 76.6% | MCH (6 h): 21.9 pg | MCHC (6 h): 33.7% | MCV (6 h): 65.1 fL | Mono (6 h): 9.8% | Neu (6 h): 13% | PT (6 h): 11.9 s | Plat (6 h): 110.3 x10_4/uL | RBC (6 h): 622 x10_4/ul | Ret (6 h): 10% | WBC (6 h): 69.6 x10_2/uL | KIDNEY_L (6 h): 0.9 g | KIDNEY_R (6 h): 0.9 g | KIDNEY_TOTAL (6 h): 1.9 g | LIVER (6 h): 8.9 g | ALP (6 h): 933.8 IU/L | ALT (6 h): 29.4 IU/L | AST (6 h): 62.2 IU/L | BUN (6 h): 11.4 mg/dL | CRE (6 h): 0.6 mg/dL | Ca (6 h): 10.7 mg/dL | Cl (6 h): 105 meq/L | DBIL (6 h): 0.02 mg/dL | GLC (6 h): 196.2 mg/dL | IP (6 h): 10.5 mg/dL | K (6 h): 4.7 meq/L | LDH (6 h): 98.4 IU/L | Na (6 h): 141.6 meq/L | PL (6 h): 137.8 mg/dL | RALB (6 h): 3.3 g/dL | TBIL (6 h): 0.4 mg/dL | TC (6 h): 78 mg/dL | TG (6 h): 40.2 mg/dL | TP (6 h): 5.3 g/dL | gamma-GTP (6 h): 0.8 IU/L | TERMINAL_BW (9 h): 197 g | APTT (9 h): 16.9 s | Bas (9 h): 0% | Eos (9 h): 1% | Fbg (9 h): 206.8 mg/dL | Hb (9 h): 13 g/dL | Ht (9 h): 38.8% | Lym (9 h): 77.8% | MCH (9 h): 21.5 pg | MCHC (9 h): 33.5% | MCV (9 h): 64.3 fL | Mono (9 h): 6.8% | Neu (9 h): 14.6% | PT (9 h): 11.2 s | Plat (9 h): 109 x10_4/uL | RBC (9 h): 604.2 x10_4/ul | Ret (9 h): 8.2% | WBC (9 h): 72.5 x10_2/uL | KIDNEY_L (9 h): 0.9 g | KIDNEY_R (9 h): 1 g | KIDNEY_TOTAL (9 h): 1.9 g | LIVER (9 h): 8.5 g | ALP (9 h): 842.6 IU/L | ALT (9 h): 33.4 IU/L | AST (9 h): 63.6 IU/L | BUN (9 h): 12.8 mg/dL | CRE (9 h): 0.5 mg/dL | Ca (9 h): 10.4 mg/dL | Cl (9 h): 105.8 meq/L | DBIL (9 h): 0.048 mg/dL | GLC (9 h): 199 mg/dL | IP (9 h): 10.6 mg/dL | K (9 h): 4.6 meq/L | LDH (9 h): 78.4 IU/L | Na (9 h): 143.2 meq/L | PL (9 h): 114 mg/dL | RALB (9 h): 3.5 g/dL | TBIL (9 h): 0.4 mg/dL | TC (9 h): 67.6 mg/dL | TG (9 h): 27.6 mg/dL | TP (9 h): 5.4 g/dL | gamma-GTP (9 h): 1.6 IU/L | TERMINAL_BW (24 h): 207.9 g | APTT (24 h): 16 s | Bas (24 h): 0% | Eos (24 h): 1% | Fbg (24 h): 206 mg/dL | Hb (24 h): 13.4 g/dL | Ht (24 h): 39.8% | Lym (24 h): 86.4% | MCH (24 h): 21.4 pg | MCHC (24 h): 33.7% | MCV (24 h): 63.4 fL | Mono (24 h): 4.8% | Neu (24 h): 8% | PT (24 h): 11.7 s | Plat (24 h): 113.3 x10_4/uL | RBC (24 h): 628.4 x10_4/ul | Ret (24 h): 7.4% | WBC (24 h): 74.6 x10_2/uL | KIDNEY_L (24 h): 1 g | KIDNEY_R (24 h): 1 g | KIDNEY_TOTAL (24 h): 2 g | LIVER (24 h): 9.3 g | ALP (24 h): 999.2 IU/L | ALT (24 h): 30.4 IU/L | AST (24 h): 64.8 IU/L | CRE (24 h): 0.5 mg/dL | Ca (24 h): 10.9 mg/dL | Cl (24 h): 104.8 meq/L | DBIL (24 h): 0.028 mg/dL | GLC (24 h): 192.4 mg/dL | IP (24 h): 9.1 mg/dL | K (24 h): 5 meq/L | LDH (24 h): 94.6 IU/L | Na (24 h): 140.6 meq/L | PL (24 h): 134.4 mg/dL | RALB (24 h): 3.6 g/dL | TBIL (24 h): 0.3 mg/dL | TC (24 h): 78.2 mg/dL | TG (24 h): 60 mg/dL | TP (24 h): 5.5 g/dL | gamma-GTP (24 h): 1.2 IU/L
